# Assay results from patent US7399744B2, “Methods for affecting body composition” (Amylin Pharmaceuticals, Inc., priority 2004, dated 2008).
# Bridge positions count the residues as written; N and C are the ends. Peptide text beside a SMILES is read from it.
# Key:
# amylin receptors = molecular target: T1, amylin receptors (Rattus norvegicus, UniProt P32214+Q9JJ74); assay: Receptor binding assay (competition with 125I Bolton Hunter rat amylin, basal forebrain membranes)
# T1 construct: This basal forebrain tissue, containing the nucleus accumbens and surrounding regions, was weighed and homogenized; from tissue; host or cells: rat basal forebrain (nucleus accumbens and surrounding regions) membranes
# T1 sequence (P32214 25-516): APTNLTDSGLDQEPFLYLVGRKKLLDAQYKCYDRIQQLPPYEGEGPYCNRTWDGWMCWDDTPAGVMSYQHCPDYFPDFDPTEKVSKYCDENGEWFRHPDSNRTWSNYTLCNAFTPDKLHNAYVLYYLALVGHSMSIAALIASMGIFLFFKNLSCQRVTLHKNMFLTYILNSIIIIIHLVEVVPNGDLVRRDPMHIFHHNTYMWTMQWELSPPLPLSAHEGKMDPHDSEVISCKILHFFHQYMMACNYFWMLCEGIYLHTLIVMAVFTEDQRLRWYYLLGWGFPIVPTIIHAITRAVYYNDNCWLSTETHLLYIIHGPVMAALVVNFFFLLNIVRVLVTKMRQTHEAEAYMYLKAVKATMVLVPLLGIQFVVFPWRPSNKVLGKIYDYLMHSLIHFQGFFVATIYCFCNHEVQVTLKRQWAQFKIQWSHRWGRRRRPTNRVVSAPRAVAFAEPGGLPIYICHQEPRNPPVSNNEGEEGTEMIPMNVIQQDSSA
# T1 sequence (Q9JJ74 27-148): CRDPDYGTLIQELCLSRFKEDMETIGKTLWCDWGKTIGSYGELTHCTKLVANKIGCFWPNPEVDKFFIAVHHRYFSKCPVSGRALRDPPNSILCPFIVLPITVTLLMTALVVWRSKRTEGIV
# Source text: A preferred source of the membrane preparations used in the assay is the basal forebrain which comprises membranes from the nucleus accumbens and surrounding regions.
# Unlabeled peptides were obtained from BACHEM Inc. (Torrance, Calif.) and Peninsula Laboratories (Belmont, Calif.).
# Male Sprague-Dawley rats (200-250) grams were sacrificed by decapitation. Brains were removed to cold phosphate-buffered saline (PBS). From the ventral surface, cuts were made rostral to the hypothalamus, bounded laterally by the olfactory tracts and extending at a 45° angle medially from these tracts. This basal forebrain tissue, containing the nucleus accumbens and surrounding regions, was weighed and homogenized in ice-cold 20 mM HEPES buffer (20 mM HEPES acid, pH adjusted to 7.4 with NaOH at 23° C.). […] The final membrane pellet was resuspended in 20 mM HEPES buffer containing 0.2 mM phenylmethylsulfonyl fluoride (PMSF).
# Solutions were incubated for 60 minutes at 23° C. […] Filters were washed immediately before filtration with 5 ml cold PBS, and immediately after filtration with 15 ml cold PBS.
# [1] = tested on: insulin-stimulated glycogen synthesis in soleus muscle; assay: Soleus muscle assay; assay type: cell-based; conditions: rat soleus muscle, inhibition of glucose incorporation into glycogen
# Protocol: Concentrations of peptide dissolved in carrier-free buffers are determined by quantitative amino acid analysis, as described therein. The ability of compounds to act as agonists in this assay is determined by measuring EC50 values. […] Similar results were obtained with other agonist compounds listed above.
compound,measurement,setting,value
"CC[C@H](C)[C@H](NC(=O)[C@H](C)NC(=O)CNC(=O)[C@H](Cc1ccccc1)NC(=O)[C@H](CC(N)=O)NC(=O)[C@H](CC(N)=O)NC(=O)[C@H](CO)NC(=O)[C@H](CO)NC(=O)[C@H](Cc1c[nH]cn1)NC(=O)[C@@H](NC(=O)[C@H](CC(C)C)NC(=O)[C@H](Cc1ccccc1)NC(=O)[C@H](CC(N)=O)NC(=O)[C@H](C)NC(=O)[C@H](CC(C)C)NC(=O)[C@H](CCCNC(=N)N)NC(=O)[C@H](CCC(N)=O)NC(=O)[C@@H](NC(=O)[C@H](C)NC(=O)[C@@H]1CCCCNC(=O)C[C@H](NC(=O)[C@@H](N)CCCCN)C(=O)N[C@@H](CC(N)=O)C(=O)N[C@@H]([C@@H](C)O)C(=O)N[C@@H](C)C(=O)N[C@@H]([C@@H](C)O)C(=O)N1)[C@@H](C)O)C(C)C)C(=O)N[C@@H](CC(C)C)C(=O)N[C@@H](CO)C(=O)N[C@@H](CO)C(=O)N[C@H](C(=O)N[C@@H](CC(N)=O)C(=O)N[C@H](C(=O)NCC(=O)N[C@@H](CO)C(=O)N[C@@H](CC(N)=O)C(=O)N[C@H](C(=O)N[C@@H](Cc1ccc(O)cc1)C(N)=O)[C@@H](C)O)C(C)C)[C@@H](C)O [^2,7Cyclo-[^2Asp,^7Lys]-h-Amylin] (H-KDNTATKATQRLANFLVHSSNNFGAILSSTNVGSNTY-NH2; lactam 2-7; N-terminus and C-terminus assumed)",IC50,amylin receptors,0.31 nM
same,EC50,[1],6.62 nM
